Data from US20250230193A1, “CYCLIC COMPOUND HAVING SELECTIVE KRAS INHIBITORY EFFECT ON HRAS AND NRAS” (CHUGAI SEIYAKU KABUSHIKI KAISHA, priority 2022, published 2025).
Where a SMILES comes first, the peptide text is derived from it. Bridges are numbered along the chain shown (N, C = ends). [ ]: non-standard residue; d: D form. The star is where a group is joined. hPhe(3-Cl-4-CF3) = N[C@@H](CCc1ccc(C(F)(F)F)c(Cl)c1)C(=O)O; NPrPhe(4-CF3) = CCCN[C@@H](Cc1ccc(C(F)(F)F)cc1)C(=O)O; NMePhe(4-F) = CN[C@@H](Cc1ccc(F)cc1)C(=O)O; NMeGly(cPent) = CN[C@H](C(=O)O)C1CCCC1; NMeD = CN[C@@H](CC(=O)O)C(=O)O; NMeL = CN[C@@H](CC(C)C)C(=O)O; Morpholide = C1CN(*)CCO1; NMeA = CN[C@@H](C)C(=O)O; Ac5c = NC1(C(=O)O)CCCC1; Aze = O=C(O)[C@@H]1CCN1; Sar = CNCC(=O)O

Columns and labels:
[1] = molecular target: GDP-bound NRAS wild-type protein (Homo sapiens, UniProt P01111); experiment: Binding to NRAS by surface plasmon resonance (SPR), Single Cycle Kinetics; conditions: SPR; for NRAS/KRAS (ratio of KD value with respect to NRAS to KD value with respect to KRAS): GDP-bound NRAS wild-type vs GDP-bound KRAS wild-type
[2] = molecular target: GDP-bound HRAS wild-type protein (Homo sapiens, UniProt P01112); experiment: Binding to HRAS by surface plasmon resonance (SPR), Single Cycle Kinetics; conditions: SPR; for HRAS/KRAS (ratio of KD value with respect to HRAS to KD value with respect to KRAS): GDP-bound HRAS wild-type vs GDP-bound KRAS wild-type
GDP-bound HRAS wild-type protein, sequence (P01112 whole entry): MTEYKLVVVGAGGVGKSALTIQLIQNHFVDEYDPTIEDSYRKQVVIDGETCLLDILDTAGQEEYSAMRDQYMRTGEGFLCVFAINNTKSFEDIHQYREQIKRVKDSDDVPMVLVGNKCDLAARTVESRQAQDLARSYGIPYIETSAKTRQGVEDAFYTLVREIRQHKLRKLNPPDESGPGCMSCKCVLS

GDP-bound NRAS wild-type protein, sequence (P01111 whole entry): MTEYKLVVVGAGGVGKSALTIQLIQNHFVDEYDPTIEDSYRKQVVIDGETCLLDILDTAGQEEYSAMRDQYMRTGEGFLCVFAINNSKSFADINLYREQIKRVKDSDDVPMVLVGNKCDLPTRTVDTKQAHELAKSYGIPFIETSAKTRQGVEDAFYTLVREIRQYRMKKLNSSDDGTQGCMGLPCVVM

Row | SMILES | NRAS/KRAS (ratio of KD value with respect to NRAS to KD value with respect to KRAS) [1] | HRAS/KRAS (ratio of KD value with respect to HRAS to KD value with respect to KRAS) [2] | also measured
1 | CCOC[C@H]1C(=O)N[C@@H]([C@@H](C)CC)C(=O)N(C2CC2)CC(=O)N(C)[C@H]2C/C=C\CCN(C2=O)[C@@H](CC2CCC(F)(F)CC2)C(=O)N(C)CC(=O)N[C@@H](CCc2ccc(C(F)(F)F)c(OC)c2)C(=O)N2C[C@H](OCC)C[C@H]2C(=O)N(C)C2(CCC2)C(=O)N(C)[C@@H](C(CC)CC)C(=O)N(C)[C@H](C(=O)N(C)C)CC(=O)N1C [PP2351] | A (a compound having 10 or more and less than 20 is denoted as A) | A (a compound having 10 or more and less than 20 is denoted as A) | 
2 | CCC(CC)[C@H]1C(=O)N(C)[C@H](C(=O)N(C)C)CC(=O)N(C)[C@@H](COC)C(=O)N[C@@H]([C@@H](C)CC)C(=O)N(C)CC(=O)N(C)[C@H]2C/C=C\CCN(C2=O)[C@@H](CC2CCCCC2)C(=O)N(C)CC(=O)N[C@@H](CCc2ccc(C(F)(F)F)c(OC)c2)C(=O)N2C[C@@H](C)C[C@H]2C(=O)NC2(CC(C)(C)C2)C(=O)N1C [PP2466] | A (a compound having 10 or more and less than 20 is denoted as A) | A (a compound having 10 or more and less than 20 is denoted as A) | 
3 | CCCN1C(=O)CN(C)C(=O)CNC(=O)[C@H]([C@@H](C)CC)NC(=O)[C@H](CC(C)C)N(C)C(=O)C[C@@H](C(=O)N(C)C)N(C)C(=O)[C@H](C2CCCC2)N(C)C(=O)C2(CCCC2)NC(=O)[C@@H]2CCCN2C(=O)[C@H](CCc2ccc(C(F)(F)F)c(Cl)c2)NC(=O)CN(C)C(=O)[C@@H]1Cc1ccc(C(F)(F)F)cc1 [PP0417] ([NMeL]IG[Sar][NPrPhe(4-CF3)][Sar][hPhe(3-Cl-4-CF3)]P[Ac5c][NMeGly(cPent)][NMeD]-NMe2; lactam N-11) |  |  | NRAS/KRAS (ratio of KD value with respect to GDP-bound NRAS wild-type protein to KD value with respect to KRAS) ([1]; KD ratio NRAS/KRAS): B (a compound having 3 or more and less than 10 is denoted as B); HRAS/KRAS (ratio of KD value with respect to GDP-bound HRAS wild-type protein to KD value with respect to KRAS) ([2]; KD ratio HRAS/KRAS): C (A compound having a KD ratio of 0.1 or more and less than 3 is denoted as C)
4 | CCO[C@@H]1C[C@H]2C(=O)NC3(CC(C)(C)C3)C(=O)N(C)[C@@H](C(CC)CC)C(=O)N(C)[C@H](C(=O)N(C)C)CC(=O)N(C)[C@@H](C(C)C)C(=O)N[C@@H]([C@@H](C)CC)C(=O)N(C)CC(=O)N(C)[C@H]3C/C=C\CCN(C3=O)[C@@H](CC3CCC(F)(F)CC3)C(=O)N(C)CC(=O)N[C@@H](CCc3ccc(C(F)(F)F)c(OC)c3)C(=O)N2C1 [PP2477] | A (a compound having 10 or more and less than 20 is denoted as A) | A (a compound having 10 or more and less than 20 is denoted as A) | 
5 | CCO[C@@H]1C[C@H]2C(=O)NC3(CCC3)C(=O)N(C)[C@@H](C3CCCC3)C(=O)N(C)[C@H](C(=O)N(C)C)CC(=O)N(C)[C@@H](CC)C(=O)N[C@@H]([C@@H](C)CC)C(=O)N(C)CC(=O)N(C)[C@H]3CCCCN(C3=O)[C@@H](Cc3ccc(C(F)(F)F)cc3)C(=O)N(C)CC(=O)N[C@@H](CCc3c(F)c(F)c(C(F)(F)F)c(F)c3F)C(=O)N2C1 [PP0886] |  |  | NRAS/KRAS (ratio of KD value with respect to NRAS to KD value with respect to KRAS) ([1]; KD ratio): C (A compound having a KD ratio of 0.1 or more and less than 3 is denoted as C); HRAS/KRAS (ratio of KD value with respect to HRAS to KD value with respect to KRAS) ([2]; KD ratio): B (a compound having 3 or more and less than 10 is denoted as B)
6 | CC[C@H](C)[C@@H]1NC(=O)[C@H](CC(C)C)N(C)C(=O)C[C@@H](C(=O)N2CCOCC2)N(C)C(=O)[C@H](C2CCCC2)N(C)C(=O)C2(CCCC2)NC(=O)[C@@H]2CCCN2C(=O)[C@H](CCc2ccc(C(F)(F)F)c(Cl)c2)NC(=O)CN(C)C(=O)[C@H](Cc2ccc(F)cc2)N(C)C(=O)[C@@H]2CCN2C(=O)[C@H](C)N(C)C1=O [PP0217] ([NMeL]I[NMeA][Aze][NMePhe(4-F)][Sar][hPhe(3-Cl-4-CF3)]P[Ac5c][NMeGly(cPent)][NMeD]-Morpholide; lactam N-11) |  |  | NRAS/KRAS (ratio of KD for GDP-bound NRAS wild-type to KD for KRAS) ([1]; KD ratio NRAS/KRAS): C (A compound having a KD ratio of 0.1 or more and less than 3 is denoted as C); HRAS/KRAS (ratio of KD for GDP-bound HRAS wild-type to KD for KRAS) ([2]; KD ratio HRAS/KRAS): C (A compound having a KD ratio of 0.1 or more and less than 3 is denoted as C)
